In patent US20220395500A1, “SMALL MOLECULE ACTIVATORS OF INTERFERON REGULATORY FACTOR 3 AND METHODS OF USE THEREOF” (Neuralexo, Inc., priority 2020, published 2022):
Read-outs that look alike come from different tables or passages of the source.

Tests used:
[1] = J774-Dual cytotoxicity; format: cell-based, mouse; settings: mouse, J774-Dual cells, read-out: J774 cytotox CC50
Method in brief: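 CC50 derived from 8-point concentration series in mouse J774-Dual reporter cells, with viability read by CellTiter-Glo in the same plate. Run in parallel with EC50 and ISRE:NFκB ratio determination for cross-species confirmation.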

[2] = test system: IRF-Lucia luciferase reporter (ISRE) in J774-Dual cells; test: J774-Dual IRF-Lucia luciferase reporter assay (ISRE activation); format: cell-based, mouse
Method in brief: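 Eight-point dose-response in J774-Dual mouse macrophage-like cells gave EC50, plus CC50 by in-plate CellTiter-Glo, and ISRE:NF-κB ratios. Cells plated 24 h at 37 °C, 5% CO2 without differentiation; supernatant Lucia luciferase and SEAP measured with QUANTI-Luc and QUANTI-Blue.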

[3] = Mus musculus, J774, Mouse Reporter Cell Line, 8-point dose response, read-out: J774 IRF EC50
[4] = Mouse Reporter Cell Line J774, at peak
[5] = Mus musculus, J774, Mouse Reporter Cell Line J774, read-out: J774 IRF EC50

Structure (SMILES)	CC50 ([1]; Mouse Reporter Cell Line)	J774 IRF % activation at peak ([2]; Mouse Reporter Cell Line)	EC50 [2, 3]	CC50 ([1]; Mouse Reporter Cell Line J774)	J774 IRF % activation at peak [2, 4]	EC50 [2, 5]	also measured
O=C(Nc1ccc(N2CCN(C(=O)c3cccs3)CC2)cc1)c1sc2cc(Cl)ccc2c1Cl [NA-20]	43.6 µM	29.98%	4.19 µM				
Cc1ccc(NC(=O)c2cc(NC(=O)c3cccs3)ccc2N2CCOCC2)cc1Br [NB-23]				36.9 µM	72.79%	6.56 µM	
COCOc1ccc2oc(-c3ccc(C)c([N+](=O)[O-])c3)nc2c1 [ND-96]				> 25 µM	5.389%	18.9 µM	
Cc1cc(NC(=O)c2sc3cc(Cl)ccc3c2Cl)ccc1NC(=O)c1ccco1 [NC-2]	> 25 µM	4.6%	14.6 µM				
Cc1ccc(-c2nc3ccccc3s2)cc1NC(=O)c1cccc(Cl)c1 [ND-80]				> 25 µM	26.88%	~10.1 µM	
O=C(Nc1ccc(N2CCN(C(=O)c3ccsc3)CC2)cc1)c1ccc(OCc2ccccc2)nc1 [NA-1]	13.7 µM	67.54%	~3.06 µM				
Cc1ccc(NC(=O)c2cc(NC(=O)c3cccs3)ccc2N2CCOCC2)cc1Cl [NB-8]				> 25 µM	52.86%	5.67 µM	
Cc1ccc(NC(=O)c2cc(NC(=O)c3cccs3)ccc2N2CCOCC2)cc1 [NB-17]				> 25 µM	16.67%	8.68 µM	
COc1cccc(COc2ccc(C(=O)Nc3ccc(N4CCN(C(=O)c5cccs5)CC4)cc3)cc2)c1 [NA-24, 4-((3-methoxybenzyl)oxy)-N-(4-(4-(thiophene-2-carbonyl)piperazin-1-yl)phenyl)benzamide]	36.2 µM	111.2%	4.67 µM				
O=C(Cc1ccc(Cl)cc1)Nc1cccc(-c2nnc(-c3ccco3)o2)c1 [ND-7]				> 25 µM			
COc1ccc(C(=O)Nc2nc(-c3cc4ccccc4oc3=O)cs2)cc1 [ND-1]				> 25 µM	28.40%	8.82 µM	
COc1ccc(C(=O)Nc2cccc(-c3nc4ncccc4o3)c2)cc1Br [ND-47]				> 25 µM			
O=C(Nc1ccc(N2CCN(C(=O)c3cccs3)CC2)cc1)c1ccc(Br)cc1 [NA-14]	> 25 µM	4.471%	5.23 µM				
O=C(Nc1ccc(N2CCN(C(=O)c3cccs3)CC2)cc1)c1ccc(-c2ccccc2)nc1 [NA-41]	> 25 µM	37.71%	10.6 µM				
O=C(Nc1ccc(N2CCN(C(=O)c3cccs3)CC2)cc1)c1ccc(-c2cc3ccccc3oc2=O)cc1 [NA-32]	67.2 µM	77.58%	11.9 µM				
CC(C)CC(=O)Nc1ccc2oc(-c3cccc(I)c3)nc2c1 [ND-5]				> 25 µM	12.45%	~12.9 µM	
Cc1ccc(NC(=O)c2cc(NC(=O)c3ccccc3)ccc2N2CCOCC2)cc1Cl [NB-1]				> 111 µM	54.52%	6.57 µM	
COc1ccc(C(=O)Nc2cc(-c3nc4cc(C)c(C)cc4o3)ccc2C)cc1[N+](=O)[O-] [ND13, N-(5-(5,6-dimethylbenzo[d]oxazol-2-yl)-2-methylphenyl)-4-methoxy-3-nitrobenzamide]				4.32 µM	220.5%	0.956 µM	
COc1ccc(C(=O)Nc2cc(-c3nc4ccccc4s3)ccc2C)cc1[N+](=O)[O-] [ND-38]					114%		EC50 ([2]; Mouse Reporter Cell Line J774, read-out: J774 IRF EC50): 7.67 µM
Cc1ccc(NC(=O)c2cc(NC(=O)Cc3ccccc3)ccc2N2CCOCC2)cc1Cl [NB-3]				> 25 µM	2.603%	8.54 µM	

Structure (SMILES)	CC50 ([1]; Mouse Reporter Cell Line)	J774 IRF % activation at peak ([2]; Mouse Reporter Cell Line)	EC50 [2, 3]	CC50 ([1]; Mouse Reporter Cell Line J774)	J774 IRF % activation at peak [2, 4]	EC50 [2, 5]	also measured
O=C(Nc1ccc(N2CCN(C(=O)c3cccs3)CC2)cc1)c1ccc(OCc2cccc(Cl)c2)cc1 [NA-33]	25.5 µM	15.46%	2.64 µM				
O=C(Nc1ccc(N2CCN(C(=O)c3cccs3)CC2)cc1)c1ccc(-c2ccncc2)cc1 [NA-38]	> 25 µM	2.98%	~10.2 µM				
COc1ccc(C(=O)Nc2cc(-c3nc4cc(C(C)C)ccc4o3)ccc2C)cc1[N+](=O)[O-] [ND-2]				65.8 µM	141.80%	4.81 µM	
COc1ccc(C(=O)Nc2ccc(OCc3ccccc3)cc2)cc1[N+](=O)[O-] [NA-44]	> 25 µM	2.085%	7.38 µM				
O=C(Nc1ccc(N2CCN(C(=O)c3cccs3)CC2)cc1)c1cccc2c(Br)cccc12 [NA-21, 5-bromo-N-{4-[4-(2-thienylcarbonyl)-1-piperazinyl]phenyl}-1-naphthamide]	63.8 µM	38.86%	1.01 µM				
CCOc1ccc(C(=O)Nc2ccc(N3CCN(C(=O)c4cccs4)CC3)cc2)cc1Br [NA-30]	40.7 µM	2.95%	~3.33 µM				
O=C(Nc1ccc(N2CCOCC2)c(C(=O)Nc2ccc(OCc3ccccc3)cc2)c1)c1cccs1 [NB-18]				> 25 µM	2.303%	~4.84 µM	
Cc1c(Br)ccc(C(=O)Nc2ccc(N3CCN(C(=O)c4cccs4)CC3)cc2)c1C [NA-16]	> 25 µM						
Cc1ccc2c(=O)c3cccc(CC(=O)O)c3oc2c1C [DMXAA, 5,6-dimethylxanthenone-4-acetic acid]							EC50 ([2]; Mus musculus, J774-Dual control compound, read-out: EC50 ISRE activation): 24 µM
O=C(Nc1ccc(N2CCN(C(=O)c3cccs3)CC2)cc1)c1ccc(OCc2ccccc2)nc1 [NA-59]	36.1 µM	150.5%	3.09 µM				
COc1ccc(C(=O)Nc2cc(-c3nc4ccccc4s3)ccc2C)cc1[N+](=O)[O-] [ND52, N-[5-(1,3-benzothiazol-2-yl)-2-methylphenyl]-4-methoxy-3-nitrobenzamide]					131.7%	5.87 µM	
CCOc1cccc(COc2ccc(C(=O)Nc3ccc(N4CCN(C(=O)c5cccs5)CC4)cc3)cc2)c1 [NA42, 4-((3-ethoxybenzyl)oxy)-N-(4-(4-(thiophene-2-carbonyl)piperazin-1-yl)phenyl)benzamide]	37.2 µM	191.2%	3.9 µM				
O=C(Nc1ccc(N2CCN(C(=O)c3cccs3)CC2)cc1)c1ccc(OCc2ccc(F)c(F)c2F)cc1 [NA-23]	22.1 µM						
O=C(Nc1ccc(N2CCN(C(=O)c3cccs3)CC2)cc1)c1ccc(Cl)c2ccccc12 [NA13]	> 25 µM	3.434%	0.821 µM				
Cc1ccc(COc2ccc(C(=O)Nc3ccc(N4CCN(C(=O)c5cccs5)CC4)cc3)cc2)cc1 [NA-25]	> 25 µM	18.01%	4.38 µM				
O=C(Nc1ccc(N2CCN(C(=O)c3cccs3)CC2)cc1)c1ccc(-c2ccccc2)cn1 [NA-39]	> 25 µM	77.89%	9.81 µM				
COCOc1ccc2oc(-c3ccc(C)c(NC(=O)c4ccc(OC)c([N+](=O)[O-])c4)c3)nc2c1 [ND-95, 4-methoxy-N-(5-(5-(methoxymethoxy)benzo[d]oxazol-2-yl)-2-methylphenyl)-3-nitrobenzamide]				> 25 µM	98.11%	4.1 µM	
ClCCCOc1ccc(-c2nc3cc(OCCCN4CCCC4)ccc3o2)cc1 [ND-94]				> 25 µM	5.09%	4.53 µM	
COc1ccc(-c2nc3cc(C(C)C)ccc3o2)cc1NC(=O)c1ccc(C)c([N+](=O)[O-])c1 [ND-16]				> 25 µM	83.02%	3.58 µM	
